Experimental findings from patent US8329716B2, “Hetaryloxy-substituted phenylamino pyrimidines as Rho kinase inhibitors” (Bayer Intellectual Property GmbH, priority 2004, dated 2012) are described below.

This test concerns isolated saphenous artery of rabbits. Briefly: Vessel-relaxing action in vitro, phenylephrine-induced contractions of isolated saphenous artery rings. Particulars: Oryctolagus cuniculus; concentration reducing phenylephrine-induced contraction of rabbit saphenous artery rings by 50% of control. The method, then: The inhibition of the enzyme is investigated in an in vitro assay with recombinant Rho kinase II. The vessel-relaxing action is determined using phenylephrine-induced contractions of isolated rings of the saphenous artery of rabbits.
Vessel-Relaxing Action In Vitro
Individual 3-mm-wide rings of the isolated saphenous artery of rabbits are introduced into 5 ml organ baths with Krebs-Henseleit solution (37° C., gassed with carbogen). The vessel tone is monitored isometrically and registered. Contractions are induced by addition of […] of phenylephrine/ml, which is washed out again after 4 min. After a number of control cycles, the rings are preincubated with the substance to be examined, with the dosage being increased for each further cycle, and the subsequent contraction is compared to the intensity of the last control contraction.
For `Nc1nc(Nc2ccc(Oc3ccnc4[nH]cc(Cl)c34)c(F)c2)cc(C(F)(F)F)n1` [Example 9, N^4-{4-[(3-Chloro-1H-pyrrolo[2,3-b]pyridin-4-yl)oxy]-3-fluorophenyl}-6-(trifluoromethyl)pyrimidine-2,4-diamine], it took 0.045 µM to reach half-maximal inhibition (IC50).

The molecule `Cc1c[nH]c2nccc(Oc3c(F)cc(Nc4cc(Cl)nc(N)n4)cc3F)c12` [Example 1, 6-Chloro-N^4-{3,5-difluoro-4-[(3-methyl-1H-pyrrolo[2,3-b]pyridin-4-yl)oxy]phenyl}pyrimidine-2,4-diamine] returned an IC50 of 0.067 µM.

Turning to `N#Cc1c[nH]c2nccc(Oc3ccc(Nc4cc(C(F)(F)F)nc(N)n4)cc3F)c12` [Example 18, 4-(4-{[2-Amino-6-(trifluoromethyl)pyrimidin-4-yl]amino}-2-fluorophenoxy)-1H-pyrrolo[2,3-b]pyridin-3-carbonitrile], it took 0.019 µM to reach half-maximal inhibition (IC50).

Usually IC50 stands for the midpoint of a concentration-inhibition curve.
